Laboratory results as given in BindingDB's records for doi:10.1016/j.chembiol.2011.05.008 (Stanford University, 2011).
*1 amine or outer side, *2 acyl side, *3 side chain or, on linkers, in order; H or OH if unused. Where a SMILES comes first, the peptide text is derived from it. [ ]: non-standard residue; d: D form. The star is where a group is joined. ξ: configuration not given here. ξThr(3S) = C[C@H](O[*:3])C(N[*:1])C(=O)[*:2]; X2 = O=C(CN*)COC(=O)c1c2ccccc2cc2ccccc12; X1 = O=C(Cc1ccc(O)c([N+](=O)[O-])c1)*

Assays:
Assay in all cases: Fluorogenic Assay
Details in all cases: pH 8; 37 °C
[1] = target: T1, Sentrin-specific protease 1 (Homo sapiens, UniProt Q9P0U3)
T1 sequence (Q9P0U3 whole entry): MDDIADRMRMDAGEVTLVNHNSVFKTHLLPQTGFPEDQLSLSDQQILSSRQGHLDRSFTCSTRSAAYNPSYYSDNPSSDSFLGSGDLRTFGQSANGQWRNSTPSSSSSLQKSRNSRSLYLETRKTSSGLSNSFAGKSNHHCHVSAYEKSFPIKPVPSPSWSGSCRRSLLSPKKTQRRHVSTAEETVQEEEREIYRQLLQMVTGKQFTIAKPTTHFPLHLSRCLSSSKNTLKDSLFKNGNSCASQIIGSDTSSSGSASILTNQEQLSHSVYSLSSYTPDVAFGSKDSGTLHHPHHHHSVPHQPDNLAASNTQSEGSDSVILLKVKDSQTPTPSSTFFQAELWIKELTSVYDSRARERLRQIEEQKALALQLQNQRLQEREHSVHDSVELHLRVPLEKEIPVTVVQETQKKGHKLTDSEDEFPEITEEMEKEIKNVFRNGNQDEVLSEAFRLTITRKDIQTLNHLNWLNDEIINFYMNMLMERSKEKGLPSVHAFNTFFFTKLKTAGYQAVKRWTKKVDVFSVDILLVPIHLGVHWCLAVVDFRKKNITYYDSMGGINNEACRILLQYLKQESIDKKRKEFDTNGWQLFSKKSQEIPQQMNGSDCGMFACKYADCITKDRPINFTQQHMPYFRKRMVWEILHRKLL
Experimental: The fluorogenic substrate library screen was performed with hSENP1 in low salt tris buffer at final concentration of 2uM. Fluorophore release (AFC) production was measured using fluorescence plate reader at 405nm/510nm for 10-60min.

[2] = target: T2, Sentrin-specific protease 6 (Homo sapiens, UniProt Q9GZR1)
T2 sequence (Q9GZR1 whole entry): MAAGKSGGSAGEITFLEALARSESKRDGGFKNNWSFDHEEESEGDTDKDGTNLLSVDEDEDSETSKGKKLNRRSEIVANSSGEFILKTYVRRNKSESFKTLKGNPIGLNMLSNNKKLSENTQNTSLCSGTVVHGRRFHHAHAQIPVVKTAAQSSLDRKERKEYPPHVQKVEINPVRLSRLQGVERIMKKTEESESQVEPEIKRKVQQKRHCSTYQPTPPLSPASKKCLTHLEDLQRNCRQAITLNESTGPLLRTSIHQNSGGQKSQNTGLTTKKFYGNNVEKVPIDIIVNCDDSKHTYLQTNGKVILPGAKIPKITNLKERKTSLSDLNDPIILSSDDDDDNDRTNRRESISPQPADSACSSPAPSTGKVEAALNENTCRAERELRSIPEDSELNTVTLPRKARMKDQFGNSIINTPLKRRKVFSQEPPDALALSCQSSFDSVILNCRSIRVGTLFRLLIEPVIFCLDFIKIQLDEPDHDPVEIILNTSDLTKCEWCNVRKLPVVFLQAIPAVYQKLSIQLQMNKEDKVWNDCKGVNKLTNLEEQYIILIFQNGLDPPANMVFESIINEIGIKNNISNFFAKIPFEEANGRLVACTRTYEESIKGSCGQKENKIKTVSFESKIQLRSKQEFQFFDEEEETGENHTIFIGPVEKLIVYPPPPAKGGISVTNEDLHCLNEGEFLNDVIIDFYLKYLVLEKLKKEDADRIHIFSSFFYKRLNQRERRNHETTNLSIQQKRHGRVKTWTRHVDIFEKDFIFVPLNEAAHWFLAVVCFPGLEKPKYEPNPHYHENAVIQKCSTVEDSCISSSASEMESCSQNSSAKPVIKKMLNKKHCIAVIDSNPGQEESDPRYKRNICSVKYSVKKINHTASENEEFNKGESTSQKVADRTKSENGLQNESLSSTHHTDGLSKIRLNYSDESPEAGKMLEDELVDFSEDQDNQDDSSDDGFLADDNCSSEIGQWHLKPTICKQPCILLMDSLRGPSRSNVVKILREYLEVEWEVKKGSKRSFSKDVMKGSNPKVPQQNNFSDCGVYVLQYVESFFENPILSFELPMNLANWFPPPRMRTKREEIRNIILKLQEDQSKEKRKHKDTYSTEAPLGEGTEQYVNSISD

[3] = target: T3, Sentrin-specific protease 2 (Homo sapiens, UniProt Q9HC62)
T3 sequence (Q9HC62 whole entry): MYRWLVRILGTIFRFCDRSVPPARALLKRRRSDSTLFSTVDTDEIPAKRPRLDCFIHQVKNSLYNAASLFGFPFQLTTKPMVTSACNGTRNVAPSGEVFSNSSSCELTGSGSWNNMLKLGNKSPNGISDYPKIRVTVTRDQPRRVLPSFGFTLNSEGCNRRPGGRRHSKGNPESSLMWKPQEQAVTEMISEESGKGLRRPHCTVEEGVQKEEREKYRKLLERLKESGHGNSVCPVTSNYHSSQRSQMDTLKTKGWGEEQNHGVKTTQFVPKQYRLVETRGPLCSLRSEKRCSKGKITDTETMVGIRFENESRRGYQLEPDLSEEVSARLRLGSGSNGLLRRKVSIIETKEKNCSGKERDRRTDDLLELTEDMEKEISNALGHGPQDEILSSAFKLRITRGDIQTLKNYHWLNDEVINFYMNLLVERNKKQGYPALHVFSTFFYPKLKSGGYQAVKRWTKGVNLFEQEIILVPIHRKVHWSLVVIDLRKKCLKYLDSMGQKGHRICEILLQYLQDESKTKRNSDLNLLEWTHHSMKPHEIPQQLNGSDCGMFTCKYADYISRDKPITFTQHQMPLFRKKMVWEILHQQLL

[4] = target: T4, Sentrin-specific protease 7 (Homo sapiens, UniProt Q9BQF6)
T4 sequence (Q9BQF6 whole entry): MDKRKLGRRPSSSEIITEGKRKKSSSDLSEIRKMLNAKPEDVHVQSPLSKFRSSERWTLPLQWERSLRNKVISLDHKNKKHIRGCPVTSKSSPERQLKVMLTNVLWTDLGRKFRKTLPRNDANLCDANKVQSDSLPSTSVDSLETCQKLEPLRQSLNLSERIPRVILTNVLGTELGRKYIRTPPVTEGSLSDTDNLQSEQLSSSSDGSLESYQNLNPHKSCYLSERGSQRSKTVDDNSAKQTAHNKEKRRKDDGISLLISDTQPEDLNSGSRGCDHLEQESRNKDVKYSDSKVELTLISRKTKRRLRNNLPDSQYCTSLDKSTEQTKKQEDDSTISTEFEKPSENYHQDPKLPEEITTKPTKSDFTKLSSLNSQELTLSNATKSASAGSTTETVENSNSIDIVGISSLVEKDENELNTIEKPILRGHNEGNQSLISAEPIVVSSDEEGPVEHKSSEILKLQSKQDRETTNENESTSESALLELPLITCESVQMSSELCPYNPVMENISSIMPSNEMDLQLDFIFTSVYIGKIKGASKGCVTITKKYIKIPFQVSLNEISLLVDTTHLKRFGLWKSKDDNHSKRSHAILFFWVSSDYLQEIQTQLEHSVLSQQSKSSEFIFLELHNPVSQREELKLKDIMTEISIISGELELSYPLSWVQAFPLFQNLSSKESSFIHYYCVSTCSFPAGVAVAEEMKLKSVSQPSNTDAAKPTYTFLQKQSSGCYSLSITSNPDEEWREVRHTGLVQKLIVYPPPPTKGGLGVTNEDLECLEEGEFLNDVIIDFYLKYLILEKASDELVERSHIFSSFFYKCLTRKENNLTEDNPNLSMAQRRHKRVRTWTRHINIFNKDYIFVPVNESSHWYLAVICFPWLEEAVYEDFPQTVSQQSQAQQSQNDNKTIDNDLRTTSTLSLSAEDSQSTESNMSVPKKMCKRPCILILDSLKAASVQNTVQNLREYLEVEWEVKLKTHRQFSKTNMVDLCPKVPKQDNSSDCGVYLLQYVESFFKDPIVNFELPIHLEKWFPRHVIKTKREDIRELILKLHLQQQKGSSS

| Compound | IC50 [1] | IC50 [2] | IC50 [3] | IC50 [4] |
| --- | --- | --- | --- | --- |
| O=C(O)CN(NC(=O)c1ccc(CNC(=O)c2cccc(C(=O)O)c2)cc1)C(=O)[C@H]1O[C@@H]1C(=O)N(Cc1cccc2ccccc12)Cc1cccc2ccccc12 [JCP-666] | 13.8 µM | > 100 µM | 7 µM | > 70 µM |
| C[C@H](O)C(NC(=O)[C@H](CCC(N)=O)NC(=O)Cc1ccc(O)c([N+](=O)[O-])c1)C(=O)NCC(=O)NCC(=O)COC(=O)c1c2ccccc2cc2ccccc12 (some centres not stated) [VEA-499] | 3.6 µM | > 60 µM | 0.25 µM | > 100 µM |
| C[C@H](O)C(NC(=O)[C@H](CCC(N)=O)NC(=O)[C@H](CCC(N)=O)NC(=O)Cc1ccc(O)c([N+](=O)[O-])c1)C(=O)NCC(=O)NCC(=O)COC(=O)c1c2ccccc2cc2ccccc12 (stereo partly drawn) [VEA-500] (X1-QQ[ξThr(3S)]G-X2) | > 20 µM | > 40 µM | 0.86 µM | > 100 µM |
| CC(C)C[C@H](NC(=O)Cc1ccc(O)c([N+](=O)[O-])c1)C(=O)N[C@@H](CCCNC(=N)N)C(=O)NCC(=O)NCC(=O)COC(=O)c1c2ccccc2cc2ccccc12 [VEA-561] | > 25 µM | 4.2 µM | 5.7 µM | 4.3 µM |

Continued, values first:

| IC50 [1] | IC50 [2] | IC50 [3] | IC50 [4] | Compound |
| --- | --- | --- | --- | --- |
| 7.1 µM | > 100 µM | 3.7 µM | 36.5 µM | O=C(O)c1cccc(C(=O)NCc2ccc(C(=O)NNC(=O)[C@H]3O[C@@H]3C(=O)N(Cc3cccc4ccccc34)Cc3cccc4ccccc34)cc2)c1 [VEA-260] |
| 23.1 µM | > 40 µM | 13.4 µM | > 20 µM | O=C(CNC(=O)c1ccc(CNC(=O)c2cccc(C(=O)O)c2)cc1)COC(=O)c1c2ccccc2cc2ccccc12 [VEA-401] |
| 32.5 µM | > 100 µM | 13.1 µM | > 70 µM | NC(=O)CNC(=O)c1ccc(C(=O)NNC(=O)[C@H]2O[C@@H]2C(=O)N(Cc2cccc3ccccc23)Cc2cccc3ccccc23)cc1 [VEA-417] |
| 22.4 µM | > 100 µM | 10.4 µM | > 70 µM | NC(=O)[C@H](CC(=O)O)NC(=O)c1ccc(C(=O)NNC(=O)[C@H]2O[C@@H]2C(=O)N(Cc2cccc3ccccc23)Cc2cccc3ccccc23)cc1 [VEA-422] |
